Our source for the activity coefficient values is the NIST ThermoML archive (doi:10.1016/j.fluid.2014.06.021).

The data set can be described thus: activity coefficient (dimensionless); of the first substance listed, at infinite dilution; xn = mol fraction of the nth substance listed. The conditions noted are these: 101.33 kPa, Liquid, Chromatography, x1 = 0.

± gives the expanded uncertainty stated by the source.

In the case of `Cc1ccccc1C` [1,2-dimethylbenzene] + C[n+]1ccn(CCCCS(=O)(=O)O)c1.O=S(=O)([N-]S(=O)(=O)C(F)(F)F)C(F)(F)F, the activity coefficient reads like this: (323.15 K) 4.39 ± 0.3; (333.15 K) 4.64 ± 0.32; (343.15 K) 4.8 ± 0.3.
For `Cc1ccccc1C` [1,2-dimethylbenzene] + C[n+]1ccn(CCCCS(=O)(=O)O)c1.O=S(=O)([O-])C(F)(F)F the same measures were 8.26 ± 0.56, 8.21 ± 0.56 and 7.97 ± 0.54.
As for `Cc1ccccc1C` [1,2-dimethylbenzene] + C[n+]1ccn(CCCCS(=O)(=O)O)c1.O=S(=O)([O-])O, the activity coefficient runs as follows: (323.15 K) 43.8 ± 3; (333.15 K) 41.3 ± 2.8; (343.15 K) 40.8 ± 2.8.
On to `Cc1cccc(C)c1` [1,3-dimethylbenzene] + C[n+]1ccn(CCCCS(=O)(=O)O)c1.O=S(=O)([N-]S(=O)(=O)C(F)(F)F)C(F)(F)F, for which the activity coefficient reads like this: (323.15 K) 5.19 ± 0.35; (333.15 K) 5.49 ± 0.37; (343.15 K) 5.57 ± 0.38.
As to `Cc1cccc(C)c1` [1,3-dimethylbenzene] + C[n+]1ccn(CCCCS(=O)(=O)O)c1.O=S(=O)([O-])C(F)(F)F, the activity coefficient (323.15 K) was 10.4 ± 0.71, the activity coefficient (333.15 K) came to 10.1 ± 0.7 and the activity coefficient (343.15 K) was 9.84 ± 0.67.
For `Cc1cccc(C)c1` [1,3-dimethylbenzene] + C[n+]1ccn(CCCCS(=O)(=O)O)c1.O=S(=O)([O-])O the same measures were 62.8 ± 4.3, 55.4 ± 3.8 and 54.5 ± 3.7.
For `Cc1ccc(C)cc1` [1,4-dimethylbenzene] + C[n+]1ccn(CCCCS(=O)(=O)O)c1.O=S(=O)([N-]S(=O)(=O)C(F)(F)F)C(F)(F)F the same measures were 5.11 ± 0.35, 5.47 ± 0.37 and 5.55 ± 0.38.
With `Cc1ccc(C)cc1` [1,4-dimethylbenzene] + C[n+]1ccn(CCCCS(=O)(=O)O)c1.O=S(=O)([O-])C(F)(F)F, the activity coefficient (323.15 K) was determined as 10.1 ± 0.69, the activity coefficient (333.15 K) came out at 9.86 ± 0.67 and the activity coefficient (343.15 K) was determined as 9.52 ± 0.65.
For `Cc1ccc(C)cc1` [1,4-dimethylbenzene] + C[n+]1ccn(CCCCS(=O)(=O)O)c1.O=S(=O)([O-])O the same measures were 56.6 ± 3.9, 54.4 ± 3.7 and 50.6 ± 3.5.
As to `C#CCCCCC` [1-heptyne] + C[n+]1ccn(CCCCS(=O)(=O)O)c1.O=S(=O)([O-])C(F)(F)F, the activity coefficient reads like this: (323.15 K) 25.9 ± 1.8; (333.15 K) 25.7 ± 1.8; (343.15 K) 24.8 ± 1.7.
For `C#CCCCC` [1-hexyne] + C[n+]1ccn(CCCCS(=O)(=O)O)c1.O=S(=O)([O-])C(F)(F)F, the activity coefficient by setting is: (323.15 K) 15.5 ± 1.1; (333.15 K) 14.4 ± 0.99; (343.15 K) 13.5 ± 0.92.
For `CCC[N+](=O)[O-]` [1-nitropropane] + C[n+]1ccn(CCCCS(=O)(=O)O)c1.O=S(=O)([N-]S(=O)(=O)C(F)(F)F)C(F)(F)F the same measures were 1.17 ± 0.07, 1.17 ± 0.07 and 1.18 ± 0.08.
Take `CCC[N+](=O)[O-]` [1-nitropropane] + C[n+]1ccn(CCCCS(=O)(=O)O)c1.O=S(=O)([O-])C(F)(F)F: the activity coefficient reads like this: (323.15 K) 1.84 ± 0.12; (333.15 K) 1.8 ± 0.12; (343.15 K) 1.77 ± 0.12.
In the case of `CCC[N+](=O)[O-]` [1-nitropropane] + C[n+]1ccn(CCCCS(=O)(=O)O)c1.O=S(=O)([O-])O, the activity coefficient (323.15 K) stood at 7.05 ± 0.48, the activity coefficient (333.15 K) is 6.92 ± 0.47 and the activity coefficient (343.15 K) came to 6.82 ± 0.46.
`CC(C)CO` [2-methyl-1-propanol] + C[n+]1ccn(CCCCS(=O)(=O)O)c1.O=S(=O)([N-]S(=O)(=O)C(F)(F)F)C(F)(F)F: the activity coefficient reads like this: (333.15 K) 0.22 ± 0.03; (343.15 K) 0.26 ± 0.03.
